Experimental data from PubChem BioAssay (NCI).
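The compound was tested at five concentrations on cells cultured in 96-well plates, with a 48-hour exposure period. GI50: concentration for 50% inhibition of growth. TGI denotes the concentration required for complete inhibition of growth.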

What was measured:
Assay in all cases: NCI tumour cell line growth inhibition, 48 h
OVCAR-5 ovarian = test system: OVCAR-5 ovarian
UO-31 renal = test system: UO-31 renal
MCF7 breast = test system: MCF7 breast
MDA-MB-231 breast = test system: MDA-MB-231 breast
SF-539 CNS = test system: SF-539 CNS
SK-OV-3 ovarian = test system: SK-OV-3 ovarian
K-562 leukemia = test system: K-562 leukemia
NCI/ADR-RES ovarian = test system: NCI/ADR-RES ovarian
MALME-3M melanoma = test system: MALME-3M melanoma
MDA-MB-435 = test system: MDA-MB-435
BT-549 breast = test system: BT-549 breast
NCI-H23 lung = test system: NCI-H23 lung
HS 578T breast = test system: HS 578T breast
SF-295 CNS = test system: SF-295 CNS
NCI-H226 lung = test system: NCI-H226 lung
HOP-62 NSCLC = test system: HOP-62 NSCLC
SW-620 colon = test system: SW-620 colon
SK-MEL-2 melanoma = test system: SK-MEL-2 melanoma
UACC-257 melanoma = test system: UACC-257 melanoma
CAKI-1 renal = test system: CAKI-1 renal
SNB-19 CNS = test system: SNB-19 CNS
MOLT-4 leukemia = test system: MOLT-4 leukemia
NCI-H522 lung = test system: NCI-H522 lung
UACC-62 melanoma = test system: UACC-62 melanoma
PC-3 prostate = test system: PC-3 prostate
SK-MEL-28 melanoma = test system: SK-MEL-28 melanoma
IGROV1 ovarian = test system: IGROV1 ovarian
SN12C renal = test system: SN12C renal
ACHN renal = test system: ACHN renal
OVCAR-4 ovarian = test system: OVCAR-4 ovarian
U251 CNS = test system: U251 CNS
LOX IMVI melanoma = test system: LOX IMVI melanoma
TK-10 renal = test system: TK-10 renal
A549 NSCLC = test system: A549 NSCLC
A498 renal = test system: A498 renal
RXF 393 renal = test system: RXF 393 renal
HCT-116 colon = test system: HCT-116 colon
NCI-H460 lung = test system: NCI-H460 lung
OVCAR-3 ovarian = test system: OVCAR-3 ovarian
HCC-2998 colon = test system: HCC-2998 colon
SF-268 CNS = test system: SF-268 CNS
HOP-92 NSCLC = test system: HOP-92 NSCLC
RPMI-8226 leukemia = test system: RPMI-8226 leukemia
HT29 colon = test system: HT29 colon
KM12 colon = test system: KM12 colon
HCT-15 colon = test system: HCT-15 colon
M14 melanoma = test system: M14 melanoma
EKVX NSCLC = test system: EKVX NSCLC
DU-145 prostate = test system: DU-145 prostate
HL-60(TB) leukemia = test system: HL-60(TB) leukemia
COLO 205 colon = test system: COLO 205 colon
T-47D breast = test system: T-47D breast
CCRF-CEM leukemia = test system: CCRF-CEM leukemia
MDA-MB-468 breast = test system: MDA-MB-468 breast
SK-MEL-5 melanoma = test system: SK-MEL-5 melanoma
786-0 renal = test system: 786-0 renal
OVCAR-8 ovarian = test system: OVCAR-8 ovarian

`CN(C)CCn1c2ccccc2c2nc3cc4ccccc4cc3nc21` showed a GI50 (OVCAR-5 ovarian) of 3.73 µM, a TGI (OVCAR-5 ovarian) of 16.8 µM and a GI50 (UO-31 renal) of 0.335 µM. The TGI (UO-31 renal) was 11.6 µM, the GI50 (MCF7 breast) was 1.29 µM and the TGI (MCF7 breast) was 13.1 µM. For the same compound, the GI50 (MDA-MB-231 breast) was 2.51 µM, the TGI (MDA-MB-231 breast) was 15.3 µM and the GI50 (SF-539 CNS) was 3.01 µM. It also gave a TGI (SF-539 CNS) of 12.8 µM, a GI50 (SK-OV-3 ovarian) of 3.98 µM and a TGI (SK-OV-3 ovarian) of 17.2 µM. For the same compound, the GI50 (K-562 leukemia) was 1.79 µM, the TGI (K-562 leukemia) was 5.45 µM and the GI50 (NCI/ADR-RES ovarian) was 2.62 µM. The TGI (NCI/ADR-RES ovarian) was 15.3 µM, the GI50 (MALME-3M melanoma) was 2.41 µM and the TGI (MALME-3M melanoma) was 8.72 µM. For the same compound, the GI50 (MDA-MB-435) was 4.19 µM, the TGI (MDA-MB-435) was 16.7 µM and the GI50 (BT-549 breast) was 4.92 µM. The TGI (BT-549 breast) was 18.5 µM, the GI50 (NCI-H23 lung) was 2.86 µM and the TGI (NCI-H23 lung) was 14.6 µM. For the same compound, the GI50 (HS 578T breast) was 12.6 µM, the TGI (HS 578T breast) was 39 µM and the GI50 (SF-295 CNS) was 1.8 µM. For the same compound, the TGI (SF-295 CNS) was 12 µM, the GI50 (NCI-H226 lung) was 1.89 µM and the TGI (NCI-H226 lung) was 6.59 µM. For the same compound, the TGI (HOP-62 NSCLC) was 16.4 µM, the GI50 (SW-620 colon) was 2.08 µM and the TGI (SW-620 colon) was 12.9 µM. For the same compound, the GI50 (SK-MEL-2 melanoma) was 8.51 µM, the TGI (SK-MEL-2 melanoma) was 21.5 µM and the GI50 (UACC-257 melanoma) was 4.37 µM. The TGI (UACC-257 melanoma) was 16.6 µM, the GI50 (CAKI-1 renal) was 1.28 µM and the TGI (CAKI-1 renal) was 12.3 µM. The GI50 (SNB-19 CNS) was 5.8 µM, the TGI (SNB-19 CNS) was 18.9 µM and the GI50 (MOLT-4 leukemia) was 2.76 µM. For the same compound, the TGI (MOLT-4 leukemia) was 12.4 µM, the GI50 (NCI-H522 lung) was 2.5 µM and the TGI (NCI-H522 lung) was 14.5 µM. The GI50 (UACC-62 melanoma) was 5.13 µM, the TGI (UACC-62 melanoma) was 18.8 µM and the GI50 (PC-3 prostate) was 2.44 µM. It also gave a TGI (PC-3 prostate) of 13.5 µM, a GI50 (SK-MEL-28 melanoma) of 5.72 µM and a TGI (SK-MEL-28 melanoma) of 18.3 µM. For the same compound, the GI50 (IGROV1 ovarian) was 1.63 µM, the TGI (IGROV1 ovarian) was 14.2 µM and the GI50 (SN12C renal) was 2 µM. The TGI (SN12C renal) was 15.9 µM, the GI50 (ACHN renal) was 1.59 µM and the TGI (ACHN renal) was 11.5 µM. For the same compound, the GI50 (OVCAR-4 ovarian) was 5.95 µM, the TGI (OVCAR-4 ovarian) was 22.1 µM and the GI50 (U251 CNS) was 2.93 µM. It also gave a TGI (U251 CNS) of 14.1 µM, a GI50 (LOX IMVI melanoma) of 1.16 µM and a TGI (LOX IMVI melanoma) of 2.42 µM. It also gave a TGI (TK-10 renal) of 22.4 µM, a GI50 (A549 NSCLC) of 1.02 µM and a TGI (A549 NSCLC) of 4.52 µM. It also gave a GI50 (A498 renal) of 14.7 µM, a TGI (A498 renal) of 32 µM and a GI50 (RXF 393 renal) of 2.23 µM. The TGI (RXF 393 renal) was 10.2 µM, the GI50 (HCT-116 colon) was 2.08 µM and the TGI (HCT-116 colon) was 14.1 µM. It also gave a GI50 (NCI-H460 lung) of 1.17 µM, a TGI (NCI-H460 lung) of 14.5 µM and a GI50 (OVCAR-3 ovarian) of 4.53 µM. For the same compound, the TGI (OVCAR-3 ovarian) was 17.2 µM, the GI50 (HCC-2998 colon) was 1.29 µM and the TGI (HCC-2998 colon) was 2.66 µM. The GI50 (SF-268 CNS) was 3.8 µM, the TGI (SF-268 CNS) was 16.4 µM and the GI50 (HOP-92 NSCLC) was 0.0473 µM. The TGI (HOP-92 NSCLC) was 2.12 µM, the TGI (RPMI-8226 leukemia) was 13 µM and the GI50 (HT29 colon) was 1.41 µM. It also gave a TGI (HT29 colon) of 3.8 µM, a GI50 (KM12 colon) of 2.8 µM and a TGI (KM12 colon) of 15.2 µM. The GI50 (HCT-15 colon) was 1.06 µM, the TGI (HCT-15 colon) was 2.47 µM and the GI50 (M14 melanoma) was 2.48 µM. For the same compound, the TGI (M14 melanoma) was 11.1 µM, the GI50 (EKVX NSCLC) was 3.36 µM and the TGI (EKVX NSCLC) was 16.2 µM. For the same compound, the GI50 (DU-145 prostate) was 2.65 µM, the TGI (DU-145 prostate) was 13.2 µM and the GI50 (HL-60(TB) leukemia) was 1.07 µM. It also gave a TGI (HL-60(TB) leukemia) of 2.85 µM, a GI50 (COLO 205 colon) of 2.12 µM and a TGI (COLO 205 colon) of 10.4 µM. It also gave a GI50 (T-47D breast) of 3.52 µM, a TGI (T-47D breast) of 19.4 µM and a GI50 (CCRF-CEM leukemia) of 6.37 µM. For the same compound, the TGI (CCRF-CEM leukemia) was 21.1 µM, the GI50 (MDA-MB-468 breast) was 1.26 µM and the TGI (MDA-MB-468 breast) was 6.36 µM. It also gave a GI50 (SK-MEL-5 melanoma) of 2.88 µM, a TGI (SK-MEL-5 melanoma) of 11.9 µM and a GI50 (786-0 renal) of 3.95 µM. It also gave a TGI (786-0 renal) of 16.5 µM, a GI50 (OVCAR-8 ovarian) of 1.47 µM and a TGI (OVCAR-8 ovarian) of 3.54 µM.
